Test results taken from ChEMBL document CHEMBL5729761, “Polycyclic compounds as allosteric SHP2 inhibitors” (2023).

Molecular target: T1, Tyrosine-protein phosphatase non-receptor type 11 (Homo sapiens, UniProt Q06124)
T1 sequence (Q06124 whole entry): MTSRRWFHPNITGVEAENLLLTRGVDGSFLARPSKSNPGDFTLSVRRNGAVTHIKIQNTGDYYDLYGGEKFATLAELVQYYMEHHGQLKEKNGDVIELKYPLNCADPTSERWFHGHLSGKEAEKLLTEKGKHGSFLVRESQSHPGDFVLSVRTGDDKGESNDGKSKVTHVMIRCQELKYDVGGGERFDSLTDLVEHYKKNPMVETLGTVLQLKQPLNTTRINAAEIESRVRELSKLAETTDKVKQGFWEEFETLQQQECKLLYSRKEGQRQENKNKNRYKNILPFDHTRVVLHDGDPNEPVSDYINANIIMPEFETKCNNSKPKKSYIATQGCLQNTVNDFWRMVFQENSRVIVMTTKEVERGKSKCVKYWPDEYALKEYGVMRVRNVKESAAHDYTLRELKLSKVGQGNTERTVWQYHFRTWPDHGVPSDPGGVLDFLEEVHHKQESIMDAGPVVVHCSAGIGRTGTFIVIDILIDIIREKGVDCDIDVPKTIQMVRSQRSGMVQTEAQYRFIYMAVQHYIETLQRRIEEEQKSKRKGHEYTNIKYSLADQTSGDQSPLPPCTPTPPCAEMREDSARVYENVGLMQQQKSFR
Assay: SHP2 Allosteric Inhibition Assay: The inhibition of SHP2 by compounds of the invention (concentrations varying from 0.00005-10 μM) was monitored using an assay in which 0.2 nM of SHP2 was incubated with 0.5 μM of Activating Peptide 1 (sequence: H2N LN(pY)IDLDLV(dPEG8)LST(pY)ASINFQK-amide) or Activating Peptide 2 (sequence: H2N-LN(pY)AQLWHA(dPEG8)LTI(pY)ATIRRF-amide). After 30-60-minutes incubation at 25° C., the surrogate substrate DiFMUP (Invitrogen, Cat #D6567) was added to the reaction and activity was determined by a kinetic read using a microplate reader (Envision, Perkin-Elmer or Spectramax M5, Molecular Devices). The excitation and emission wavelengths were 340 nm and 450 nm, respectively. Initial rates were determined from a linear fit of the data, and the inhibitor dose response curves were analyzed using normalized IC50 regression curve fitting with control based normalization.

In the case of `Cc1nc(N2CCC3(CC2)CO[C@@H](C)[C@H]3N)n2ccnc2c1-c1ccc2nccnc2c1`, the IC50 is reported as < 50 nM.
